US20050037446A1, “Agents that recognize src when phosphorylated at serine 17” (priority 2001, published 2005)

How the values were obtained:
Assay type in all cases: cell-based
Rap1 = Rap1 activation affinity assay (GST-RalGDS pull-down), NIH3T3 cells
Experimental: NIH3T3 cells (American Type Culture Collection, ATCC, Manassas, Va.) were cultured in Dulbecco-Modified Eagle Medium (DMEM) plus 10% fetal calf serum, penicillin/streptomycin, and L-glutamine at 37° C. in 5% CO2. Cells were maintained in serum-free DMEM for 16 hours at 37° C. in 5% CO2 prior to treatment. NIH3T3 cells were trasfected with Flag-Rap1 (see Vossler et al., Cell, 89:73-82, 1997) or stimulated with Forskolin (10 μM, Cal Biochem, Riverside, Calif.) for five minutes. Forskolin treated cells received either a pretreatment or post-treatment with 10 μM N-[2(Bromocimamylamino) ethyl]-5-isoquinolinesulfonamide (H89) (Cal Biochem, Riverside, Calif.) for 20 minutes.
Cells were co-transfected with Flag-Rap1 at seventy to eighty percent confluency with the cDNA using a Lipofectamine 2000 kit (Gibco BRL, Rockville, Md.) according to the manufacturer's instructions. The control vector, pcDNA3 (Invitrogen Corp.), was included in each set of transfections to assure that each plate received the same amount of DNA. Following transfection, cells were allowed to recover in serum containing media for 24 hours. Cells were then starved overnight in serum-free DMEM before treatment and lysis.
After treatment, cells were lysed in ice-cold lysis buffer (50 mM Tris-HCL (pH 8.0), 10% glycerol, 1% nonidet P40, 200 mM NaCl, 2.5 mM MgCl2, 1 mM phenylmethylsulfonyl fluoride, 1 μM leupeptin, 10 μln soybean trypsin inhibitor, 10 mM NaF, 0.1 μM aprotinin, and 1 mM NaVO4). Nuclei and cytoskeleton were removed from equivalent amounts of lysate by centrifugation at 5,000 rpm for five minutes. The supernatant was centrifuged at 100,000×g for one hour at 4° C. and, the resultant membrane was resuspended in cold lysis buffer. Aliquots of the membrane fraction were analyzed for the presence of C3G by Western blotting. The cytosolic or membrane fractions of treated or untreated cells were mixed with equivalent amounts of lysates from untreated Flag-Rap1 transfected cells. The mixture was incubated at 37° C. for five minutes and equal amounts of lysate were analyzed using the Rap1 activation assay to monitor Flag-Rap 1 activation by Gst-RalGDS.
The Rap1 activation affinity assay was performed as follows. A GST fusion protein of the Rap1-binding domain of RalGDS (GST-RalGDS, Dr. Bos, Utrecht University, The Netherlands) was expressed in E. coli following induction by isopropyl-1thio-β-D-galactopyranoside. Active Rap1 was isolated as previously described (Franke et al., EMBO J. 16:252-9, 1997). Briefly, equivalent amounts of supernatants (500 μg) were incubated with GST-RalGDS-Rap1 binding domain coupled to glutathione beads. Following a one hour incubation at 4° C., beads were pelleted and rinsed threes times with ice-cold lysis buffer. […] Proteins were detected using enhanced chemiluminescence.

[1] = tested on: complex including C3G, Crk-L, and Cb1; assay: Cb1/Crk-L/C3G complex formation (myc-Cb1 immunoprecipitation), NIH3T3 cells
Excerpt: To determine if Cb1 forms part of a complex, cells were stimulated with Forskolin in the presence or absence of H89 or PP2 and lysates generated as described above. Myc-Cb1 was immunoprecipitated from treated cells and the pellets analyzed by Western blot using antibodies specific for Crk-L and C3G. Total cell lysates were examined for myc-Cb1 by Western blot using a myc antibody (Santa Cruz Biotechnology Inc.). NIH3T3 cells express Crk-L, an isoform of Crk that is constitutively bound to C3G.

ERK1/2 = assay: ERK phosphorylation Western blot, Hek293 cells; details: 10 μM, 20 minutes pretreatment
Experimental: To examine the downstream consequences of Src-dependent signaling in Hek293 cells, ERK activation was measured using pERK antibodies (pERK1/2). Hek293 cells received no pretreatment or were pretreated for 20 minutes with H89 (10 μM), PP2 (10 μM), or LY (10 μM), and stimulated for 5 minutes with isoproterenol (10 μM), Forskolin (10 μM), or 100 ng/ml EGF, using the methods described above. Cell lysates were analyzed by Western blotting for the presence of pERK1/2 (New England Biolabs) or total ERK2 (Santa Cruz Biotechnology) as a control for protein loading.
To determine the role of PKA phosphorylation of Src serine 17 in ERK activation by cAMP, Hek293 cells were transfected with myc-ERK2 in the presence or absence of SrcS17A or SrcS17D, and stimulated with 10 μM isoproterenol. MycERK2 was immunoprecipitated from cell lysates using an agarose-coupled Myc antibody followed by western blotting for phospho-ERK (pMycERK2, upper panel) or total MycERK2 with a Myc antibody, as a control for protein loading.

AKT = AKT phosphothreonine 308 Western blot, Hek293 cells
Experimental: To determine the physiological role of Ras signaling in Hek293 cells, a well-known Ras effector, phosphoinositol-3 kinase (PI3-K) and its target, AKT (a serine/threonine kinase which participates in a variety of cellular effects including cell survival, adhesion, and cell growth) were examined as follows. Hek293 cells received no pretreatment or were pretreated for 20 minutes with H89 (10 μM), PP2 (10 μM), or LY (10 μM), and stimulated for 5 minutes with isoproterenol. Cell lysates were analyzed by Western blotting for phospho-AKT (PAKT 308, Cell Signaling, Beverly, Mass.) or total AKT (Cell Signaling) as a control. Isoproterenol activated AKT, as measured by phosphorylation-specific antibodies to phosphothreonine 308 (AKT). This phosphorylation required P13-K as LY blocked isoproterenol-induced phosphorylation at this site. Moreover, this phosphorylation was blocked by PP2, but not H89, indicating the requirement of SFKs, but not PKA. Therefore, isoproterenol's activation of AKT proceeds through Src and PI3-K but not PKA.
Similar amounts of cell lysate (determined by protein concentrations) were immunoprecipitated using an agarose-coupled HA antibody followed by Western blotting for phospho-AKT (PHA-AKT 308) or total HA-AKT with an HA antibody (12CA5, Boehringer Mannheim, Indianapolis, Ind.).

| SMILES | Effect on Forskolin activation of Flag-Rap1 in trans (Rap1; added ten minutes after Forskolin) | Effect on Forskolin activation of Flag-Rap1 in trans (Rap1; pretreatment, 10 μM, 20 minutes) | Effect on Forskolin-stimulated C3G/Crk-L/Cb1 complex formation [1] | Effect of inhibitor on isoproterenol's phosphorylation of ERK (ERK1/2) | Effect of inhibitor on isoproterenol-induced AKT phosphorylation (AKT; 10 μM, 20 minutes pretreatment) | Activation of endogenous Rap1 (Rap1; NIH3T3 cells, 10 μM, five minutes) | Activation of AKT (phosphothreonine 308) (AKT; 5 minutes) |
| --- | --- | --- | --- | --- | --- | --- | --- |
| O=S(=O)(NCCNC/C=C/c1ccc(Br)cc1)c1cccc2cnccc12 [H89, N-[2(Bromocimamylamino)ethyl]-5-isoquinolinesulfonamide] | still able to activate Flag-Rap1 in trans | blocked | blocked | inhibited | – | – | – |
| CC(C)(C)n1nc(-c2ccc(Cl)cc2)c2c(N)ncnc21 [PP2, 4-amino-5-(4-chlorophenyl)-7-(t-butyl)pyazolo[3,4-d]pyrimidine] | – | – | blocked | inhibited | blocked | – | – |
| CC(C)NCC(O)c1ccc(O)c(O)c1 (stereo not drawn) [isoproterenol] | – | – | – | – | – | activated Rap1 | activated AKT |
